# From patent US12240867B2, “Arginase inhibitors and methods of use” (Merck Sharp & Dohme LLC, priority 2018, dated 2025)
# Like-named read-outs stand apart in the source and are kept apart here.
# How the values were obtained:
# Arginase = molecular target: T1, Arginase (Homo sapiens, UniProt P05089); assay: Arginase Thioornithine Generating Assay (TOGA); format: biochemical
# T1 sequence (P05089 1-322): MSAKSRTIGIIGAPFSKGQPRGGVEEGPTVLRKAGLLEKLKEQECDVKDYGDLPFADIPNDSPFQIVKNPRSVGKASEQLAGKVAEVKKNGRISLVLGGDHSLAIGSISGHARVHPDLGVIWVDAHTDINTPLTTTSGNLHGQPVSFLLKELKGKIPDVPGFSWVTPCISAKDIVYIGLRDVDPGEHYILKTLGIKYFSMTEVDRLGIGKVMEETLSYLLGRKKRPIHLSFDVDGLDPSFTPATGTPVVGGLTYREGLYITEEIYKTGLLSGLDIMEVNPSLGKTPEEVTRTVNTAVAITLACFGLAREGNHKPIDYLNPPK
# Method: Arginase Thioornithine Generating Assay (TOGA)
# Compounds were serially diluted in ten 3-fold steps in DMSO starting from 10 mM DMSO stocks. Compound dilutions or DMSO alone were then dispensed from the dilution plate into a Greiner black 384-well assay plate (catalog #781086) using an Echo 555 acoustic liquid handler (Labcyte).
# Arginase protein was recombinantly expressed in Escherichia coli. Purified protein was then diluted in assay buffer (50 mM Tris pH 7.5, 50 mM NaCl, 1 mM manganese chloride, 0.0500 bovine serum albumin to obtain a final Arginase concentration of 1.88 nM. Arginase solution ([…])) or buffer alone (20 μL) were dispensed to wells of the assay plate using a BioRAPTR liquid dispenser (Beckman Coulter). Assay plates containing compound and arginase enzyme were incubated at room temperature for 30 minutes. Afterwards, 5 µL of 2.5 mM thioarginine (Cayman Chemicals) in assay buffer were added to each well of the assay plate using a BioRAPTR liquid dispenser. Plates were incubated at room temperature for 60 minutes and reactions were quenched by addition of 15 μL of 200 uM 7-Diethylamine-3-(4-maleimidophenyl)-4-methyl coumarin (Sigma Chemical) in 70% ethanol. Plates were briefly shaken to mix and the fluorescence was measured in an Spectramax plate reader (Molecular Devices) with a 410 nm excitation wavelength and an 490 nm emission wavelength.
# Potencies were calculated by […] least squares fit to the four parameter logistic IC50 equation.
# [1] = test system: opossum internal anal sphincter muscle; conditions: cited from earlier work
# allergic asthma model = conditions: nebulizer treatment of guinea pigs; cited from earlier work
# penile corpus cavernosum = conditions: rabbit and human penile corpus cavernosum; cited from earlier work
# live male rabbits = conditions: cited from earlier work
# [2] = test system: corpus cavernosum of the diabetic man; conditions: ex vivo; cited from earlier work
# live female rabbits = conditions: cited from earlier work
# [3] = test system: experimental autoimmune encephalomyelitis; conditions: experimental autoimmune encephalomyelitis animal model; cited from earlier work
# [4] = Top Dose 10000 nM, read-out: Percent Inhibition at Top Dose
# [5] = read-out: Percent Inhibition at Top Dose, Top Dose 10000 nM
smiles,measurement,setting,value
"CN1CC2(CCCB(O)O)CCNC2(C(=O)O)C1 (racemic) [Example 7, Racemic 3a-(3-boronopropyl)-5-methylhexahydropyrrolo[3,4-b]pyrrole-6a(1H)-carboxylic acid]",inhibition at 10 µM,Arginase; [4],85.1%
"N[C@@H](CCCCB(O)O)C(=O)O [ABH, (S)-2-amino-6-boronohexanoic acid]",relaxation of internal anal sphincter muscle,[1],relax this muscle
same,airway hyperresponsiveness,allergic asthma model,prevents airway hyperresponsiveness
same,nitric oxide-dependent relaxation of corpus cavernosum tissue,penile corpus cavernosum,enhances the nitric oxide-dependent relaxation of this tissue
same,erectile response,live male rabbits,enhances the erectile response
same,nitric oxide biosynthesis,[2],restores nitric oxide biosynthesis
same,engorgement response in the genitalia,live female rabbits,enhances the engorgement response
same,disease score,[3],improves the disease score
"NC[C@@H]1NC[C@]2(C(=O)O)NCC[C@]12CCCB(O)O [Example 12, (3aR,4R,6aR)-4-(aminomethyl)-3a-(3-boronopropyl)hexahydropyrrolo[3,4-b]pyrrole-6a(1H)-carboxylic acid]",inhibition at 10 µM,Arginase; [5],100%
"O=C(O)[C@@]12CNC[C@]1(CCCB(O)O)CCN2 [Example 5, (3aS,6aS)-3a-(3-boronopropyl)hexahydropyrrolo[3,4-b]pyrrole-6a(H)-carboxylic acid]",inhibition at 10 µM,Arginase; [4],93%
"O=C([C@@H]1CCCN1)N1C[C@@]2(CCCB(O)O)CCN[C@@]2(C(=O)O)C1 [Example 10, (3aR,6aR)-5-(L-prolyl)-3a-(3-boronopropyl)hexahydropyrrolo[3,4-b]pyrrole-6a(1H)-carboxylic acid]",inhibition at 10 µM,Arginase; [5],96.6%
"N[C@@H](CO)C(=O)N1C[C@@]2(CCCB(O)O)CCN[C@@]2(C(=O)O)C1 [Example 9, (3aR,6aR)-5-(L-seryl)-3a-(3-boronopropyl)hexahydropyrrolo[3,4-b]pyrrole-6a(1H)-carboxylic acid]",inhibition at 10 µM,Arginase; [5],97.3%
"NCC(=O)N1C[C@@]2(CCCB(O)O)CCN[C@@]2(C(=O)O)C1 [Example 3, (3aR,6aR)-3a-(3-boronopropyl)-5-glycylhexahydropyrrolo[3,4-b]pyrrole-6a(H)-carboxylic acid]",inhibition at 10 µM,Arginase; [5],89.5%
"C[C@H](N)C(=O)N1C[C@@]2(CCCB3O[C@@H]4C[C@@H]5C[C@@H](C5(C)C)[C@]4(C)O3)CCN[C@@]2(C(=O)O)C1 [Example 18, (3aR,6aR)-5-(L-alanyl)-3a-(3-((3aS,4S,6S,7aR)-3a,5,5-trimethylhexahydro-4,6-methanobenzo[d][1,3,2]dioxaborol-2-yl)propyl)hexahydropyrrolo[3,4-b]pyrrole-6a(1H)-carboxylic acid]",inhibition at 10 µM,Arginase; [4],97.9%
COC[C@H](N)C(=O)N1C[C@@]2(CCCB(O)O)CCN[C@@]2(C(=O)O)C1 [Example 17],inhibition at 10 µM,Arginase; [4],97.8%
CC(C)C[C@H](N)C(=O)N1C[C@@]2(CCCB(O)O)CCN[C@@]2(C(=O)O)C1 [Example 15],inhibition at 10 µM,Arginase; [4],96.7%
"O=C(O)[C@]12CNC[C@@]1(CCCB(O)O)CN2 [Example 11, (1S,5R)-1-(3-boronopropyl)-3,6-diazabicyclo[3.2.0]heptane-5-carboxylic acid]",inhibition at 10 µM,Arginase; [4],99.5%
CC(C)(C)[C@H](N)C(=O)N1C[C@@]2(CCCB(O)O)CCN[C@@]2(C(=O)O)C1 [Example 14],inhibition at 10 µM,Arginase; [4],102%
"CC(C)[C@H](N)C(=O)N1C[C@@]2(CCCB(O)O)CCN[C@@]2(C(=O)O)C1 [Example 8, (3aR,6aR)-5-(L-valyl)-3a-(3-boronopropyl)hexahydropyrrolo[3,4-b]pyrrole-6a(H)-carboxylic acid]",inhibition at 10 µM,Arginase; [4],99%
"O=C(O)C12CNCC1(CCCB(O)O)CCN2 (racemic) [Example 6, racemic 3a-(3-boronopropyl)hexahydropyrrolo[3,4-b]pyrrole-6a(H)-carboxylic acid]",inhibition at 10 µM,Arginase; [4],91.9%
CSCC[C@H](N)C(=O)N1C[C@@]2(CCCB(O)O)CCN[C@@]2(C(=O)O)C1 [Example 13],inhibition at 10 µM,Arginase; [4],102%
CC(C)(N)C(=O)N1C[C@@]2(CCCB(O)O)CCN[C@@]2(C(=O)O)C1 [Example 16],inhibition at 10 µM,Arginase; [4],97.3%
"C[C@H](N)C(=O)N1C[C@@]2(CCCB(O)O)CCN[C@@]2(C(=O)O)C1 [Example 1, (3aR,6aR)-5-(L-alanyl)-3a-(3-boronopropyl)hexahydropyrrolo[3,4-b]pyrrole-6a(H)-carboxylic acid]",inhibition at 10 µM,Arginase; [5],99.7%
"O=C(O)[C@]12CNC[C@@]1(CCCB(O)O)CCN2 [Example 4, (3aR,6aR)-3a-(3-boronopropyl)hexahydropyrrolo[3,4-b]pyrrole-6a(1H)-carboxylic acid]",inhibition at 10 µM,Arginase; [4],98.2%
same,IC50,"Arginase; recombinant arginase 1.88 nM, thioarginine substrate, fluorescence readout",46 nM
